Reference: PMC7156724, “Potent BRD4 inhibitor suppresses cancer cell-macrophage interaction” (Nature Communications, 2020)
“And” between values parts separate entries of the source, which are not always exact repeats. Equal entries are not always repeated.

Key:
[1] = tested on: TMD8 large B cell lymphoma; assay: TMD8 large B cell lymphoma model tumor growth; assay type: in vivo, mouse; conditions: for Tumor volume: n=6, individual animals
Excerpt: PO, oral administration; QD, once daily; BID, twice daily. b–d Tumor growth curves for A2780 ovarian tumor (n = 5) (b), TMD8 large B cell lymphoma (n = 6) (c), and B16F10 melanoma (n = 5) (d) bearing mice treated with the indicated compounds once daily for 11-21 days. e, f Tumor growth curves for A375 melanoma (n = 6) (e), and patient-derived xenograft (PDX) of melanoma (n = 5) (f) bearing mice treated with the indicated compounds once daily (5 days on, 2 days off) for 21 days. For d–f, NHWD-870 used is NHWD-870-HCl synthesized using Suzuki coupling route. Data are presented as mean ± SEM in (a, b, d, f) and mean + SEM in (c, e). p values were calculated using two-tailed, unpaired t tests. *p < 0.05; **p < 0.01; ***p < 0.001. Source data are provided as a Source Data file.
4–6 weeks old female BALB/c nude mice were used for most experiments, with the exception of 6–8 weeks old female C57BL/6 mice were used for B16F10 experiments, and 6–8 weeks old male BALB/c nude mice and SD rats were used for pharmacokinetic experiments. All animals were purchased from Shanghai SIPPR-Bk Lab Animal Co., Ltd. All animals were housed under a regimen of 12 h light/12 h dark cycles and specific pathogen-free conditions. 5×10^6 NCI-H526, ES-2, MDA-MB231, A2780, A375, B16F10, and TMD-8 cells (0.1 ml) were injected subcutaneously into female nude mice. The melanoma patient-derived xenograft model was derived from a human melanoma sample (BRAF, NARS and NF1 wild type, and p53 mutant) removed from a patient in Xiangya Hospital. Surgically removed tumor fragments were implanted subcutaneously into female NSG mice. When the tumors grew to ~1000 mm^3, they were harvested and cryopreserved or immediately re-implanted for expansion or experiments. Mouse body weight and tumor sizes were measured every 3 days. Once the tumors grew to 150–200 mm^3, mice were treated with the compounds as described in the Figures. 1 × 10^6 A2780 cells (1 ml) were injected into the abdominal cavity of nude mice. Ascitic volume and tumor weight were measured by an electronic balance. All the procedures were evaluated and approved by the Institutional Animal Care and Use Committee of Central South University and Yale University.

[2] = tested on: ES-2 cells; assay: Clonogenic (colony formation) assay, ES-2; assay type: cell-based, human; conditions: ES-2, 250 nM, 5 days
Description: (§1) Fig. 2 NHWD-870 inhibited BRD4 phosphorylation and c-MYC expression, and suppressed cell growth. a Representative western blot analysis of p-BRD4 (s484/488), BRD4, c-MYC, and GAPDH after treatment of MDA-MB231, SUM159, A2780 ES-2, and H526 cells with JQ-1 or NHWD-870 at the indicated concentrations for 24 h. GAPDH served as the loading control. Selected from three independent experiments. b MTT assays of H526, A2780, ES-2, and MDA-MB231 cells treated with JQ-1 or NHWD-870 at the indicated concentrations for 5 days. Data are presented as mean ± SEM from three independent experiments. c, d Clonogenic assays of H526, A2780, ES-2 and MDA-MB231 cells treated with 250 nM JQ-1 or NHWD-870 for 5 days. Shown are representative images (c) and quantification of colonies (d). […] Shown are representative images (e) and quantification of relative colony sizes (f). Scale bar, 50 μm. Data are presented as mean ± SEM from five independent experiments. p values were calculated using two-tailed, unpaired t tests in this figure. **p < 0.01; ***p < 0.001. Source data are provided as a Source Data file. […]
(§2) 5. Colony formation assay. Cells were seeded in 6-well plates at 3,000 cells/well […]
(§3) every week. […] Colony numbers were calculated with imageJ version

[3] = tested on: TAMs (CD11b+F4/80+ cells) in A375 melanoma model; assay: FACS analysis of TAMs in A375 tumors; assay type: in vivo, mouse; conditions: day 21, FACS
Description: Flow cytometry analyses were performed using antibodies listed in Supplementary Table 8. For cell surface markers, mouse TAM suspensions were stained with mouse APC-CD45, FITC-CD11b, PE-F4/80 or APC-F4/80, CD68, and PE-CD206 antibodies for 15 min on ice. For Ki67 staining, cells were fixed in 4% paraformaldehyde and stained with FITC-Ki67. Isotype matching antibody served as the negative control. Flow cytometry was performed on a FACSCalibur (BD Biosciences). Data were analyzed with BD CellQuest Pro software version 5.1.
(a,b) Tumors from A375 tumor bearing mice in Figure 3e were harvested at day 21 and stained with anti-CD45, CD11b, F4/80, CD68 and Ki67 followed by FACS analysis. Shown are representative FACS plots (a ) and quantification of the percentage of CD11b+F4/80+ and CD11b+F4/80+CD68+Ki67+ cells (b). Data are presented as mean ± SEM from 5 different mice. p values were calculated using two-tailed, unpaired t tests.
**, p<0.01; ***, p<0.001. (c,d) Tumors from mice described in Figure 4e were harvested at day 45 and stained […]

[4] = tested on: H526 cells; assay: Clonogenic (colony formation) assay, H526; assay type: cell-based, human; conditions: H526, 250 nM, 5 days
Description: as §1, §2, §3

Cc1nnn(C)c1-c1cnc2c3c4cnn(C)c4ccc3n([C@H](c3ccccc3)C3CCOCC3)c2c1 [NHWD-870]
Tumor volume ([1]; Fig.3c TMD-8, 1.5mg/kg p.o. QD x 21D, day 0): 214.469 mm^3 and 165.444 mm^3 and 94.318 mm^3 and 104.496 mm^3 and 146.158 mm^3 and 140.975 mm^3 | Tumor volume ([1]; Fig.3c TMD-8, 1.5mg/kg p.o. QD x 21D, day 3): 338.876 mm^3 and 252.047 mm^3 and 100.523 mm^3 and 149.534 mm^3 and 223.518 mm^3 and 132.449 mm^3 | Tumor volume ([1]; Fig.3c TMD-8, 1.5mg/kg p.o. QD x 21D, day 7): 459.258 mm^3 and 449.651 mm^3 and 146.864 mm^3 and 132.276 mm^3 and 263.192 mm^3 and 174.278 mm^3 | Tumor volume ([1]; Fig.3c TMD-8, 1.5mg/kg p.o. QD x 21D, day 10): 490.697 mm^3 and 432.678 mm^3 and 235.012 mm^3 and 190.412 mm^3 and 150.967 mm^3 and 163.029 mm^3 | Tumor volume ([1]; Fig.3c TMD-8, 1.5mg/kg p.o. QD x 21D, day 14): 640.246 mm^3 and 434.37 mm^3 and 213.016 mm^3 and 174.551 mm^3 and 71.2181 mm^3 and 175.498 mm^3 | Tumor volume ([1]; Fig.3c TMD-8, 1.5mg/kg p.o. QD x 21D, day 17): 730.308 mm^3 and 597.229 mm^3 and 374.112 mm^3 and 196.792 mm^3 and 127.555 mm^3 and 127.945 mm^3 | Tumor volume ([1]; Fig.3c TMD-8, 1.5mg/kg p.o. QD x 21D, day 21): 1151.12 mm^3 and 1193.19 mm^3 and 830.854 mm^3 and 339.119 mm^3 and 375.477 mm^3 and 217.147 mm^3 | Tumor volume ([1]; Fig.3c TMD-8, 3mg/kg p.o. QD x 21D, day 0): 135.749 mm^3 and 160.378 mm^3 and 111.097 mm^3 and 215.602 mm^3 and 96.5 mm^3 and 162.39 mm^3 | Tumor volume ([1]; Fig.3c TMD-8, 3mg/kg p.o. QD x 21D, day 3): 210.016 mm^3 and 166.954 mm^3 and 177.118 mm^3 and 367.777 mm^3 and 150.727 mm^3 and 208.299 mm^3 | Tumor volume ([1]; Fig.3c TMD-8, 3mg/kg p.o. QD x 21D, day 7): 347.833 mm^3 and 254.452 mm^3 and 292.586 mm^3 and 297.998 mm^3 and 182.149 mm^3 and 258.854 mm^3 | Tumor volume ([1]; Fig.3c TMD-8, 3mg/kg p.o. QD x 21D, day 10): 278.167 mm^3 and 325.57 mm^3 and 336.135 mm^3 and 344.695 mm^3 and 159.095 mm^3 and 292.996 mm^3 | Tumor volume ([1]; Fig.3c TMD-8, 3mg/kg p.o. QD x 21D, day 14): 177.492 mm^3 and 209.22 mm^3 and 327.654 mm^3 and 243.833 mm^3 and 100.203 mm^3 and 228.258 mm^3 | Tumor volume ([1]; Fig.3c TMD-8, 3mg/kg p.o. QD x 21D, day 17): 203.37 mm^3 and 180.739 mm^3 and 317.134 mm^3 and 320.512 mm^3 and 84.6294 mm^3 and 268.501 mm^3 | Tumor volume ([1]; Fig.3c TMD-8, 3mg/kg p.o. QD x 21D, day 21): 566.866 mm^3 and 363.185 mm^3 and 475.409 mm^3 and 503.514 mm^3 and 313.1 mm^3 and 324.211 mm^3 | effect on tumor growth ([1]; TMD8 large B cell lymphoma model, compared with Ibrutinib): stronger tumor-suppressive effects | Clone Number (clonogenic assay) [2]: 146 and 155 and 103 and 98 and 133 | number of TAMs (CD11b+F4/80+ cells) or proliferating TAMs [3]: decreased the number of TAMs | Clone Number (clonogenic assay) [4]: 75 and 84 and 92 and 65 and 76
